“And” between values parts separate entries of the source, which are not always exact repeats. Equal values may be shown once.
Experiments:
[1] = test system: ISG expression in SSc PBMCs; experiment: SSc PBMC type I IFN signaling gene expression array, unstimulated; type: cell-based, human; settings: unstimulated PBMCs from SSc patients; one value per patient (P1-P9)
Method: (§1) PBMCs in vitro experiments
(§2) Peripheral blood mononuclear cells (PBMCs) from healthy and SSc donors were separated using density gradient method (Leucosep™, Greiner Bio-One International) from EDTA anticoagulated peripheral blood; isolated cells were washed twice by PBS. PBMCs were then incubated in RPMI1640 […]
For healthy PBMCs, cells were stimulated with 20 ng/mL of IFN (+/- compounds or DMSO). For SSc PBMCs, cells were in basal conditions with no additional IFN stimulation. Cells were centrifuged at 300 g for 10 minutes. […]
RNA was extracted from cell pellets using TRIzol™ (ThermoFisher
Scientific, Waltham, MA) and processed using Quick-RNA Miniprep Kit (Zymo Research) as per the manufacturer’s instruction.
For Type I IFN signalling analysis, the human IFN I RT2 Profiler PCR Array (Qiagen, PAMM-016ZE) was performed on available RNA from healthy (n=3) and SSc (n=9) donors. RNA was converted to cDNA using RT2 First Strand Kit (Qiagen). Next, the cDNA was mixed with RT2 SYBR Green Mastermix (Qiagen, Venlo). Successful PCR performance was confirmed by assay tests for genomic DNA contamination, RNA sample quality, as well as single melt curve determination and <35 Ct for each gene, leading to validated gene expression of 67 genes. Relative expression for each gene was determined, firstly by ∆CT calculated using the geometric mean of 4 housekeeping genes (ACTB, GAPDH, HPRT1, RPLP0), followed by 2^(-∆CT), and expressed as fold change to control, according to manufacturer’s guidance. IFN2α-induced ISGs in healthy donors were determined using a Student’s t-test (two-tail distribution and equal variances) on the triplicate fold change in 2^(-ΔCT) values between […]
donors). Heatmaps were generated using the “pheatmap” function in R (v4.0.2) and RStudio (v1.3.1093) applying row scaling to standardise the expression data across samples (R core team 2020.
(§3) R Foundation for Statistical Computing). The IFN2α inducible genes determined in healthy donors […]
171-C. To account for Type I IFN signalling heterogeneity across samples, the mean 2^(-∆CT) for each […]
relative gene expression, illustrated as a fold change and visualised in log2. The Type I IFN signalling array data for the patient samples is included in Source Data Figure 6, Extended Data Fig. 9.

[2] = test system: ISG expression in healthy control PBMCs; experiment: Healthy PBMC type I IFN signaling gene expression array, IFNα2-stimulated; type: cell-based, human; settings: IFNα2 20 ng/mL, 2 µM, 16 h
Method: NEM). Cell lysates were clarified by centrifugation at 15,000 g for 10 minutes at 4 °C. Clarified lysates were pre-cleared with control uncoupled agarose beads (UM400, LifeSensors) for 30 minutes on a rotator at 4 °C followed by centrifugation at 5,000 g for 2 minutes. Equal amount of pre-cleared lysates from individual samples were incubated with 20 µL Agarose-TUBE beads (pre-equilibrated with 1X Tris-buffered saline (TBS)) overnight on a rotator at 4 °C. Beads were collected by centrifugation at 5,000 g for 2 minutes at RT followed by four stringent washes with 1X TBST (TBS, 0.1% Tween-20). TUBE-pulldown proteins were eluted by boiling Agarose-TUBE beads in 2X LDS sample buffer supplemented with […] DTT for 15 minutes. Eluted proteins were resolved on NuPAGE™ 4–12% Bis–Tris gel followed by Western blotting using anti-IFNAR1 antibody (ab124764, Abcam).
as §1, §2
For healthy PBMCs, cells were stimulated with 20 ng/mL of IFN (+/- compounds or DMSO). […] Concentration of CXCL10 was determined according to a 4-parameter logistic regression standard curve. […]
For Type I IFN signalling analysis, the human IFN I RT2 Profiler PCR Array (Qiagen, PAMM-016ZE) was performed on available RNA from healthy (n=3) and SSc (n=9) donors. […] Relative expression for each gene was determined, firstly by ∆CT calculated using the geometric mean of 4 housekeeping genes (ACTB, GAPDH, HPRT1, RPLP0), followed by 2^(-∆CT), and expressed as fold change to control, according to manufacturer’s guidance. IFN2α-induced ISGs in healthy donors were determined using a Student’s t-test (two-tail distribution and equal variances) on the triplicate fold change in 2^(-ΔCT) values between […]
as §3

Cn1cc(NC(=O)c2c(Cl)cccc2Cl)c(C(=O)NC2CCN(C(=O)c3c(Cl)cccc3Cl)CC2)n1 [AP-5-145]
ADAR, Type I IFN signalling array raw data [1]: 3.585 and 4.485 and 4.334 and 4.353 and 5.313 and 4.699 and 4.415 and 5.111 and 3.559 | BST2, Type I IFN signalling array raw data [1]: 3.184 and 2.458 and 3.302 and 3.672 and 2.309 and 1.595 and 4.59 and 3.685 and 1.654 | CASP1, Type I IFN signalling array raw data [1]: 1.628 and 0.9815 and 2.95 and 3.664 and 1.948 and 2.361 and 2.033 and 2.206 and 1.183 | CD86, Type I IFN signalling array raw data [1]: 4.785 and 2.783 and 4.5852 and 3.1897 and 4.314 and 3.552 and 4.0343 and 4.013 and 3.55 | CXCL10, Type I IFN signalling array raw data [1]: 2.8643 and 6.708 and 5.453 and 2.734 and 4.396 and 4.529 and 5.68 and 6.078 and 3.688 | DDX58, Type I IFN signalling array raw data [1]: 2.4595 and 2.543 and 3.026 and 3.209 and 2.763 and 1.787 and 3.543 and 4.173 and 1.175 | GBP1, Type I IFN signalling array raw data [1]: 0.1474 and 2.145 and 2.622 and 1.459 and 0.8545 and 1.754 and 2.939 and 2.1766 and -0.4621 | IFI6, Type I IFN signalling array raw data [1]: 2.465 and 2.227 and 2.936 and 2.73 and 1.772 and 0.8033 and 3.207 and 3.6638 and 1.0872 | IFI16, Type I IFN signalling array raw data [1]: 1.83 and 1.644 and 2.049 and 2.362 and 1.331 and 1.292 and 2.492 and 2.951 and 1.1658 | IFIH1, Type I IFN signalling array raw data [1]: 3.174 and 3.642 and 3.693 and 3.986 and 3.429 and 3.042 and 4.0109 and 5.193 and 2.582 | IFIT1, Type I IFN signalling array raw data [1]: 4.24 and 3.643 and 3.989 and 4.293 and 2.488 and 1.397 and 4.575 and 7.138 and 1.6699 | IFIT2, Type I IFN signalling array raw data [1]: 3.353 and 3.202 and 2.7801 and 3.719 and 2.327 and 0.07597 and 4.728 and 5.592 and 0.851 | IFIT3, Type I IFN signalling array raw data [1]: 2.463 and 3.281 and 3.064 and 3.575 and 3.043 and 1.248 and 5.135 and 5.476 and 1.263 | IFITM1, Type I IFN signalling array raw data [1]: -0.2471 and 0.1243 and 0.2716 and 1.178 and 0.8183 and 0.3168 and 1.196 and 1.705 and -0.8285 | IFITM2, Type I IFN signalling array raw data [1]: 3.999 and 3.471 and 4.22 and 5.1798 and 5.262 and 5.108 and 4.673 and 5.09 and 4.191 | IFITM3, Type I IFN signalling array raw data [1]: 3.006 and 2.32 and 3.244 and 3.786 and 1.434 and -0.1662 and 3.42 and 4.49 and -0.2026 | IRF1, Type I IFN signalling array raw data [1]: 1.06 and 1.224 and 2.232 and 2.144 and 1.15 and 2.067 and 2.585 and 1.973 and 0.5242 | IRF7, Type I IFN signalling array raw data [1]: 5.407 and 5.206 and 4.576 and 6.178 and 4.455 and 3.933 and 5.89 and 5.935 and 9.933 | IRF9, Type I IFN signalling array raw data [1]: 2.066 and 2.065 and 2.241 and 2.2692 and 1.294 and 1.106 and 2.973 and 2.809 and 0.8366 | ISG15, Type I IFN signalling array raw data [1]: 2.596 and 6.312 and 3.3545 and 3.693 and 0.9621 and 0.3667 and 4.1244 and 6.015 and 0.1079 | ISG20, Type I IFN signalling array raw data [1]: 2.432 and 2.479 and 2.547 and 3.375 and 2.843 and 3.174 and 3.393 and 3.464 and 1.322 | MX1, Type I IFN signalling array raw data [1]: 4.424 and 4.226 and 3.58 and 4.634 and 2.28 and 2.399 and 4.395 and 5.558 and 2.679 | MX2, Type I IFN signalling array raw data [1]: 4.173 and 3.658 and 2.952 and 4.357 and 2.358 and 2.074 and 3.745 and 4.851 and 2.355 | MYD88, Type I IFN signalling array raw data [1]: 3.563 and 2.295 and 2.992 and 3.3169 and 2.321 and 1.993 and 3.136 and 2.869 and 2.18 | NMI, Type I IFN signalling array raw data [1]: 1.73 and 1.406 and 2.205 and 1.958 and 1.878 and 1.724 and 2.633 and 2.762 and 1.099 | OAS1, Type I IFN signalling array raw data [1]: 3.537 and 3.8519 and 3.958 and 4.26 and 2.489 and 2.393 and 5.01 and 4.925 and 2.848 | OAS2, Type I IFN signalling array raw data [1]: 3.256 and 3.665 and 3.696 and 4.93 and 3.216 and 2.622 and 4.725 and 4.971 and 2.257 | PML, Type I IFN signalling array raw data [1]: 3.769 and 4.451 and 4.457 and 4.682 and 3.169 and 3.581 and 5.048 and 5.21 and 2.632 | SOCS1, Type I IFN signalling array raw data [1]: 4.276 and 3.145 and 2.943 and 3.915 and 3.6717 and 2.288 and 4.381 and 4.149 and 1.789 | STAT1, Type I IFN signalling array raw data [1]: -1.171 and 0.5507 and 0.704 and -0.4526 and -0.2783 and 1.689 and 0.5533 and 0.2423 and -1.283 | STAT2, Type I IFN signalling array raw data [1]: 3.543 and 4.373 and 3.597 and 3.344 and 3.627 and 3.236 and 4.148 and 3.986 and 2.129 | STAT3, Type I IFN signalling array raw data [1]: 1.898 and 1.636 and 1.633 and 5.446 and 2.412 and 1.5196 and 2.3996 and 2.61 and 1.33 | TAP1, Type I IFN signalling array raw data [1]: 1.436 and 1.649 and 2.5757 and 2.2546 and 2.075 and 1.836 and 3.734 and 2.309 and 0.9557 | TNFSF10, Type I IFN signalling array raw data [1]: 2.318 and 2.989 and 3.028 and 3.374 and 2.092 and 2.434 and 3.558 and 3.768 and 2.177 | IFN-induced ISG expression (in words) [2]: no difference in ISG expression profile

From paper PMC7617869, “Molecular glues that inhibit deubiquitylase activity and inflammatory signaling” (Nature Structural & Molecular Biology, 2025)
